Data reported in patent US20110306641A1, “NOVEL 2,6-SUBSTITUTED-3-NITROPYRIDINE DERIVATIVE, METHOD FOR PREPARING SAME, AND PHARMACEUTICAL PREPARATION INCLUDING SAME” (priority 2008, published 2011).

Legend:
[1] = test system: osteoclastogenesis (formation of multinucleated osteoclasts); test: Osteoclastogenesis inhibition via co-culture system (bone marrow cells + osteoblasts, TRAP staining); type: cell-based, mouse; settings: 7 days co-culture, vs vehicle control; for inhibition at 1 µM: Mus musculus, Osteoclast, 168 h; for Osteoclastogenesis inhibition (%): 1 μM
Description: Osteoclastogenesis inhibitory effects of the compounds of the present invention were evaluated via a co-culture system (Reference: Endocrinology 137(1996), 2187 to 2190, E. Jimi et al.). A specific experimental method is as follows.
1) Preparation of Bone Marrow Cells and Osteoblasts
Femur and tibia were aseptically dissected from 6 to 8-week-old male ddY mice to harvest bone marrow cells by a conventional method using a syringe. In brief, tissues were removed from the dissected bone, the bone ends were cut off with scissors, and the bone marrow was isolated by pushing a medium-containing syringe (23G) against the one end of the cut bone. The isolated bone marrow was subjected to repeated piston movement of a syringe such that single cells were obtained (Reference: Endocrinology 123(1988), 2600 to 2602, Takahashi et al.). After removal of red blood cells within the bone marrow, the bone marrow cells recovered by centrifugation were placed in an α-MEM supplemented with 10% fetal bovine serum (FBS), followed by counting of nucleated cells and then were immediately used for a co-culture system.
For the preparation of osteoblasts (Calvarial cells), the cranial bone were aseptically dissected from 1 to 2-day-old neonatal ICR mice and subjected to continuous reaction with a 0.2% collagenase solution to separate osteoblasts. The cell-suspended supernatant was centrifuged to recover osteoblasts which were grown to full confluence in an α-MEM supplemented with 10% FBS and then diluted to a desired cell density for use in the experiment.
2) Osteoclastogenesis Inhibition Experiment Via Co-Culture System
As the medium used for a co-culture system, a differentiation medium with the addition of differentiation factors 1α,25-dihydroxyvitamin D3 (10^−8M) and dexamethasone (10^−8M) to α-MEM supplemented with 10% FBS was used for the induction of osteoclastogenesis. First, the compounds of the present invention dissolved in dimethyl sulfoxide (DMSO) at a concentration of 1 mM were diluted to 2 μM using the above-mentioned differentiation medium. As a vehicle control group, 0.2% (v/v) DMSO was added to the medium. 100 μL/well of each medium was added to 96-well plates. In addition, the above prepared bone marrow cells and osteoblasts were plated onto 96-well plates at a density of 1×10^5 cells/50 μL/well and 3×10^3 cells/50 μL/well, respectively. The total volume/well was 200 μL and the final compound concentration was 1 μM. The control group was 0.1% (v/v) DMSO. The cells were cultured with exchange of the culture media with fresh media containing differentiation factors and test materials (materials containing the compounds of the present invention) at an interval of 2 to 3 days.
7 days after culturing of cells, the formation of multinucleated osteoclasts was confirmed by microscopic examination, the medium was removed from the wells and then the cells were fixed in a 10% phosphate-buffered formalin solution. The degree of formation of mature osteoclasts was measured taking advantage of the characteristics of osteoclasts showing a positive reaction to a tartrate-resistant acid phosphatase (TRAP) staining solution. The TRAP staining solution was prepared in a manner such that naphthol AS-MS phosphate as a substrate and a coloring agent (Fast Red Violet LB salt) were dissolved in N,N-dimethylformamide, and a 0.1N NaHCO3 buffer solution containing 50 mM of tartaric acid was added thereto. Among the TRAP-positive cells under a light microscope, multinucleated osteoclasts having 6 to 7 nuclei were regarded as mature osteoclasts.
The degree of inhibition of osteoclastogenesis was calculated according to the following equation 1. The results are summarized in Table 2 below (Experiments were carried out for 4 wells/experimental group (n=4), and the results are given in terms of mean±standard deviation) […]

MC3T3-E1 cell = test: Alkaline phosphatase (ALP) activity in MC3T3-E1 cells; type: cell-based; settings: 3 days; for activity at 1 µM: Mus musculus, 72 h, read-out: ALP activity (1 μM, % of Control) MC3T3-E1 cell
Description: (§1) Differentiation and activity of osteoblasts were indirectly evaluated by measuring an ALP activity having a close relationship with osteogenesis.
(§2) Osteoblasts (Calvarial cells) prepared in Experimental Example 1 and MC3T3-E1 cells (available from RIKEN Cell Bank, Japan) were collected in α-MEM supplemented with 10% FBS, followed by cell counting. The cells were dispensed into 24-well cultureware at a density of 2×10^4 cells/well. After culturing of the cells for 24 hours, the culture media were discarded and replaced with fresh media in which test compounds were diluted to a concentration of 1 μM (1 mL/well). In addition, the vehicle control group containing 0.1% DMSO was also treated. Under the conditions where the compounds were treated, the cells were cultured in a 5% CO2 […] at 37° for 3 days. When the experiment was terminated, the supernatant was removed and the cells were washed three times with cold phosphate buffer at 4°. 0.2% Triton X-100 was added to the washed cells which were then subjected to three cycles of freezing at −70° and thawing at room temperature for the complete lysis of cells. The cell extracts were pooled and centrifuged to collect the cell supernatant which was used for the measurement of ALP activity and proteins. The protein concentration was measured using a BCA assay kit (manufactured by Sigma-Aldrich). For the measurement of ALP activity, p-nitrophenylphosphate was added to the cell supernatant which was then incubated at 37° for 30 minutes, and the reaction was terminated with the addition of 50 μL of 0.2N sodium hydroxide. The standard curve was plotted at the absorbance of 405 nm using p-nitrophenol as a standard material and then the absorbance of test materials thus reacted was measured to determine the production amount of p-nitrophenol.
(§3) The ALP activity was calculated by dividing the amount of p-nitrophenol produced from each test material by the protein amount and the reaction time. Therefore, the unit of ALP activity was given in terms of p-nitrophenol/μg protein/min. The results are given in Table 3 where the ALP activity unit of each test material was given in terms of % change through the comparison between the individual test materials and the vehicle control group.

Calvarial cell [2] = test: Alkaline phosphatase (ALP) activity in osteoblasts (Calvarial cells); type: cell-based, mouse; settings: 3 days; for activity at 1 µM: Mus musculus, 72 h, read-out: ALP activity (1 μM, % of Control) Calvarial cell
Description: as §1, §2, §3

Calvarial cell [3] = test: Cytotoxicity test (MTT) in osteoblasts (calvarial cells); settings: 1 μM, 72 hours, vs vehicle control
Description: Drugs were diluted to a concentration of 2 μM in α-MEM culture media supplemented with 10% FBS. The vehicle control group was established to contain 0.2% DMSO. 100 μL/well of the diluted drugs were dispensed into 96-well plates to which osteoblasts (calvarial cells) prepared in Experimental Example 1 were then added at a density of 1.0×10^4 cells/100 μL/well. Here, the final compound concentration in the cell culture was 1 μM, and the vehicle control group contained 0.1% DMSO. The cells were cultured in a 5% CO2 inhibitorr at 37° for 72 hours. 25 μL of 3-(4,5-dimethyl-2-thiazolyl)-2,5-diphenyl-2H-tetrazolium bromide (MTT) dissolved in PBS (2 mg/mL) was added to each cell culture 4 hours before the end of culture. After completion of the reaction, the plates were centrifuged, the media were discarded, and 100 μL of formazan was added and dissolved in dimethyl sulfoxide (DMSO). Finally, the absorbance of the developed plates was measured at 540 nm. The cell viability was expressed as % concentration in comparison with the vehicle control group.

Row | SMILES | inhibition at 1 µM [1] [%] | activity at 1 µM (MC3T3-E1 cell) [%] | activity at 1 µM (Calvarial cell [2]) [%] | Cell viability (%) Calvarial cell (Calvarial cell [3]) [%] | Osteoclastogenesis inhibition (%) [1] [%] | ALP activity (1 μM, % of Control) MC3T3-E1 cell (MC3T3-E1 cell) | ALP activity (1 μM, % of Control) Calvarial cell (Calvarial cell [2])
1 | O=[N+]([O-])c1ccc(N2CCNCC2)nc1Nc1ccc2[nH]ncc2c1 [Compound 10, 2-(1H-indazol-5-yl)amino-6-(piperazin-1-yl)-3-nitropyridine] | 99 | 124 | 189 | 95 |  |  | 
2 | CN(C)CC(C)(C)CNc1ccc([N+](=O)[O-])c(Nc2ccc3[nH]ncc3c2)n1 [Compound 16, 2-(1H-indazol-5-yl)amino-6-[(3-dimethylamino-2,2-dimethyl)-propylamino]-3-nitropyridine] |  |  |  | 104 | 89 | 144 % of Control | 123 % of Control
3 | CCN(CCO)c1ccc([N+](=O)[O-])c(Nc2ccc3[nH]ncc3c2)n1 [Compound 11, 2-(1H-indazol-5-yl)amino-6-[(N-ethyl-2-hydroxyethyl)amino]-3-nitropyridine] |  |  |  | 105 | 98 | 140 % of Control | 143 % of Control
4 | CN(CC1OCCO1)c1ccc([N+](=O)[O-])c(Nc2ccc3[nH]ncc3c2)n1 [Compound 17, 2-(1H-indazol-5-yl)amino-6-[(N-[1,3]-dioxolan-2-ylmethyl)-methylamino]-3-nitropyridine] |  |  |  | 89 | 92 | 188 % of Control | 139 % of Control
5 | CC(C)Nc1ccc([N+](=O)[O-])c(Nc2ccc3[nH]ncc3c2)n1 [Compound 6, 2-(1H-indazol-5-yl)amino-6-(isopropylamino)-3-nitropyridine] | 100 | 207 | 188 | 97 |  |  | 
6 | CN(CCO)c1ccc([N+](=O)[O-])c(Nc2ccc3[nH]ncc3c2)n1 [Compound 7, 2-(1H-indazol-5-yl)amino-6-[(N-methyl-2-hydroxyethyl)amino]-3-nitropyridine] |  |  |  | 103 | 72 | 155 % of Control | 221 % of Control
7 | CC(C)c1nccn1-c1ccc([N+](=O)[O-])c(Nc2ccc3[nH]ncc3c2)n1 [Compound 3, 2-(1H-indazol-5-yl)amino-6-(2-isopropylimidazol-1-yl)-3-nitropyridine] | 95 | 172 | 148 | 118 |  |  | 
